Assay [1] deals with castor oil-stimulated gastrointestinal transit in rats. Put plainly: Small intestinal transit, charcoal meal (Table 3). Type of assay: in vivo. As to conditions: 0.1 mg kg^−1 IP. The procedure: Animals were divided into four groups of six rats each and each animal was given orally 1 ml of charcoal meal (5% activated charcoal suspended in 1% CMC) 60 min after an oral dose of drugs or vehicle. Group I was administered with 1% CMC (10 ml kg^−1) and animals in the other groups received various formulations. Another group received atropine sulfate (0.1 mg kg^−1, IP) as standard drug. After 30 min animals were killed by cervical dislocation and the intestine was removed without stretching and placed lengthwise on moist filter paper. The length of the intestine (pyloric sphincter to caecum) and the distance travelled by the charcoal as a percentage of that length were evaluated for each animal, and group means were compared and expressed as percentage inhibition (Lutterodt, J. Ethnopharmacol. 25, 1989, 235–247). […] Therefore the dose dependent effect of the formulation was similar to the synthetic drug atropine. But long use of atropine completely blocks the secretions it is an adverse effect.

The test system of assay [2] is human carcinoma cells of the naso-pharynx. As to conditions: cell culture; cited from earlier work.
Assay [3] has as its system castor oil induced diarrhea in rats. The experiment in a line: Castor oil induced diarrhea / defecation, total faecal matter over 4 h (Table 1). Type of assay: in vivo. As to conditions: 5.0 mg kg^−1 p.o. On the procedure:
Groups of six mice each were placed individually in separate cages with filter papers at the bottom. Different doses of the extracts were administered orally to different groups. The non-specific antidiarrhoeal reference drug diphenoxylate HCl (5.0 mg kg^−1, p.o.) and 1% CMC ([…], p.o.) were administered to two groups and later served as controls (Melo et al, J. Pharm. Pharmacol. 40 (1988), […]). The total number of the faecal matter in each group was assessed every hour for the next 4 h. Percent reduction in the total number of faeces in the treated groups was obtained by comparison with control animals.
The method of Awouters et al. (J. Pharm. Pharmacol, 30, 1978, 41–45) as modified by Nwodo and Alumanah (J. Ethnopharmacol, 31, 1991, 395–398) was used. Briefly, rats fasted for 24 h were randomly allocated to five groups of six animals each. One group received 1% CMC (10 mL kg^−1, p.o.), other groups received orally the different dosage of drug extract. Another group given diphenoxylate HCl (5.0 mg kg^−1, p.o.) as suspension. After 60 min each animal was given with 2 ml of castor oil by orogastric cannula, and placed in a separate cage and observed for 4 h defecation. Transparent plastic dishes were placed beneath each cage and the characteristic diarrhoeal droppings were noted. The total number of the faecal matter in each group was assessed every hour for the next 4 h. […]

For assay [4], the system named is indomethacin induced acute gastric ulcers in rats. The experiment in a line: Indomethacin induced acute gastric ulcers (Table 4). As to conditions: 50 mg/kg. Type of assay: in vivo. The procedure:
To assess the efficacy of different formulations against the indomethacin induced gastric ulcer different doses (25–100 mg kg^−1, p.o.) of formulations were administered to groups of 10 mice for each dose, while one group of the same number of mice served as control and the
The results of Table 4 represents that there is a significant and dose dependent anti ulcer activity and percentage ratio ranges of protection from 27.03 to 75.38.

The test system of assay [5] is cysteamine induced duodenal ulcers in rats. Put plainly: Cysteamine induced duodenal ulcers (Table 5). Type of assay: in vivo. As to conditions: 50 mg/kg. An excerpt:
The efficacy is compared with the known standard synthetic drug Ranitidine for treatment of. […] Where as the formulation F5 contains […]. indica, Cinamommum sp. and Buchanania lanzan.

Each structure is given as a SMILES string. Several values for one entry are separate records, joined by “and”; a condition that tells them apart may be missing. Equal entries are not always repeated. Structures can show the parent of a compound that is named as a salt. Marks after values point to notes of the source that are not given here.

Take `CN1[C@@H]2CC[C@H]1CC(OC(=O)C(CO)c1ccccc1)C2.CN1[C@@H]2CC[C@H]1CC(OC(=O)C(CO)c1ccccc1)C2.O=S(=O)(O)O` (some centres unmarked) [Atropine sulphate, atropine sulfate]: in assay [1], the “Mean distance travelled by charcoal” value is 26.5 ± 2.6^b cm and the “Reduction (%)” value stood at 68.33%.

With `COc1cc2c3c(O)c1OCc1ccc(cc1)C[C@@H]1c4c(cc(OC)c(OC)c4Oc4ccc(cc4)CC3=NCC2)CCN1C` [Cissampareine], the “inhibitory activity against human carcinoma cells of the naso-pharynx” value in assay [2] is “significant and reproducible inhibitory activity”.

Consider `CCOC(=O)C1(c2ccccc2)CCN(CCC(C#N)(c2ccccc2)c2ccccc2)CC1` [Diphenoxylate HCl, diphenoxylate HCl], for which, in assay [3] (counted over 4 h, six rats per group), the “Total no of faecal matter” value came out at 16. Moreover, the “% Reduction (Inhibition)” value in assay [3] (vs control 1% CMC) came to 75.38%.

With `CNC(=C[N+](=O)[O-])NCCSCc1ccc(CN(C)C)o1` [Ranitidine], in assay [4], the “% Curative ratio” value is reported as 82.20% and the Ulcer index is reported as 0.81 ± 0.01^b. In addition, in assay [5], the “% Protection” value was 77% and 77.9%; the Ulcer incidence % came out at 20%; the “Ulcer incidence No” value is recorded as 2/10; the “Ulcer score Total lesion area” value is 1.06 ± 0.17^c mm^2.
